Earlier results, collected in patent publication US20050158402A1, “Preparation of Chinese herbal composite recipe used in environmental sanitation” (priority 2004, published 2005).
“Also recorded” adds a separate entry of the source.

Columns and labels:
Shigella = conditions: 1% matrine, in vitro
B-streptococcus = conditions: 1% matrine, in vitro
E. Coli = conditions: 1% matrine, in vitro
Staphylococcus aureaus = conditions: 1% matrine, in vitro
Proteus = conditions: 1% matrine, in vitro
[1] = system: type A hemolytic Streptococcus
Shigella species = conditions: in vitro

Molecule: O=C1CCC[C@@H]2[C@H]3CCCN4CCC[C@@H](CN12)[C@@H]34 [matrine]
- bacteria inhibitive effects on Shigella (Shigella): bacteria inhibitive effects on Shigella, E. Coli, Proteus,
- bacteria inhibitive effects on B-streptococcus (B-streptococcus): bacteria inhibitive effects on Shigella, E. Coli, Proteus,
- bacteria inhibitive effects on E. Coli (E. Coli): bacteria inhibitive effects on Shigella, E. Coli, Proteus,
- bacteria inhibitive effects on Staphylococcus aureaus (Staphylococcus aureaus): bacteria inhibitive effects on Shigella, E. Coli, Proteus,
- bacteria inhibitive effects on Proteus (Proteus): bacteria inhibitive effects on Shigella, E. Coli, Proteus,

Molecule: Cc1cc(O)c(C(=O)CCC(C)C)c(=O)o1 [pogostone]
- inhibit the growth of fungi such as Penicillum (Penicillum): 22(7): 318) The pogostone can inhibit the growth of fungi
- inhibitive effects on C. albicans (C. albicans): The pogostone show apparently inhibitive effects on fungi
- inhibitive effects on Rhizopus stolonifer (Rhizopus stolonifer): The pogostone show apparently inhibitive effects on fungi
- inhibitive effects on Cryptococcus neoformans (Cryptococcus neoformans): The pogostone show apparently inhibitive effects on fungi
- inhibitive effect on type A hemolytic Streptococcus [1]: stolonifer. It shows certain degree of inhibitive effect on type

Molecule: CC[C@@H]1[C@H]2CCCCN3[C@H]2[C@H](C[C@H]3[C@@H]2C[C@H](C)C(=O)O2)[C@@H]2[C@H]1OC(=O)[C@H]2C [tuberostemonine]
- paralyze Ascarid (Ascarid): can paralyze

Molecule: C/C(=C/CC[C@]1(C)C2C[C@@H]3[C@H](C2)C31C)CO [α - santol]
- anti-bacteria effects (bacteria): The α - santol and β -santol show stronger anti-bacteria

Molecule: C=C1[C@@H]2CC[C@@H](C2)[C@@]1(C)CC/C=C(/C)CO [β -santol]
- anti-bacteria effects (bacteria): The α - santol and β -santol show stronger anti-bacteria

Molecule: evodiamine
- anti-viruses effect on rats infected by Columbia SK viruses (Columbia SK viruses): anti-viruses effect; also recorded: anti-virus effect

Molecule: santol
- effective to Shigella species (Shigella species): effective
